Measured values taken from patent US9738634B2, “Heterocyclic amide compound and herbicide” (SYNGENTA PARTICIPATIONS AG, priority 2013, dated 2017).

Assays:
Type in all cases: in vivo
Settings in all cases: soil treatment, treatment dosage 80 g/ha
black-grass = experiment: Test Example 3: weedkilling efficacy through soil treatment; H: black-grass
Summary of the method: (§1)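 Crop and weed responses were judged three weeks after a uniform surface spray of the water-diluted emulsion at the given g/ha rate. Seeds sat beneath about 1.5 cm of sterilized diluvial soil, and boxes stood in a greenhouse at 25 to 30° C.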

Italian ryegrass = experiment: Test Example 3: weedkilling efficacy through soil treatment; I: Italian ryegrass
Summary of the method: as §1

common wind-grass = experiment: Test Example 3: weedkilling efficacy through soil treatment; J: common wind-grass
Excerpt: (§2) Weedkilling Efficacy Test Through Soil Treatment
(§3) Sterilized diluvial soil was introduced into 21 cm long, 13 cm wide, 7 cm deep plastic boxes, and seeds of crabgrass, green foxtail, barnyard grass, wild oat, black-grass, Italian ryegrass, common wind-grass, Indian mallow, redroot pigweed, fig-leafed goosefoot, chickweed, catchweed, birds-eye speedwell, corn, soybean, rice, wheat, beet and rapeseed were each spot-sown, and covered with about 1.5 cm of soil. Next, emulsions of compounds of the present invention prepared according to compounding example 2 were diluted with water to give the specified dosages, and applied uniformly onto the soil surface with a small sprayer. The plants were grown by placing the plastic boxes in a greenhouse at 25 to 30° C., and 3 weeks after the pesticide treatment the effect on each type of plant was investigated on the basis of the assessment criteria of test example 1.
(§4) A: barnyard grass, B: bulrush, C: oval-leafed pondweed, D: crabgrass, E: green foxtail, F: barnyard grass, G: wild oat, H: black-grass, I: Italian ryegrass, J: common wind-grass, K: Indian mallow, L: redroot pigweed, M: fig-leafed goosefoot, N: chickweed, O: catchweed, p: birds-eye speedwell, a: transplanted rice, b: directly sown rice, c: corn, d: soybean, e: wheat, f: beet, g: rapeseed
(§5) Further, pesticide dosage (g/ha) indicates the concentration regulated such that treatment was with only the stated number of grams (g), when calculated per hectare (ha).

wheat = experiment: Test Example 3: soil treatment, effect on crop; e: wheat
Summary of the method: as §1

rapeseed = experiment: Test Example 3: soil treatment, effect on crop; g: rapeseed
Excerpt: as §2, §3, §4, §5

| SMILES | H: black-grass, weedkilling efficacy grade (black-grass) | I: Italian ryegrass, weedkilling efficacy grade (Italian ryegrass) | J: common wind-grass, weedkilling efficacy grade (common wind-grass) | e: wheat, effect on crop grade (wheat) | g: rapeseed, effect on crop grade (rapeseed) |
| --- | --- | --- | --- | --- | --- |
| CC(C)(C(=O)Nc1cc(Cl)nc(Cl)n1)N1COCN(c2ccccc2)C1=O [A-1-21] | 4 (weed kill ratio 70% or more, less than 90%) | 4 (weed kill ratio 70% or more, less than 90%) | 5 (weed kill ratio 90% or more, (practically complete withering)) | 0 (weed kill ratio 5% or less (practically no effect)) | 0 (weed kill ratio 5% or less (practically no effect)) |
| CC(C)(C(=O)Nc1ccnc(Cl)n1)N1COCN(c2ccccc2)C1=O [A-1-20] | 5 (weed kill ratio 90% or more, (practically complete withering)) | 5 (weed kill ratio 90% or more, (practically complete withering)) | 5 (weed kill ratio 90% or more, (practically complete withering)) | 1 (weed kill ratio 5% or more, less than 20%) | 1 (weed kill ratio 5% or more, less than 20%) |
| CC(C)(C(=O)Nc1cc(Br)ccn1)N1COCN(c2ccccc2)C1=O [A-2-08] | 5 (weed kill ratio 90% or more, (practically complete withering)) | 5 (weed kill ratio 90% or more, (practically complete withering)) | 5 (weed kill ratio 90% or more, (practically complete withering)) | 0 (weed kill ratio 5% or less (practically no effect)) | 0 (weed kill ratio 5% or less (practically no effect)) |
